# Reference: patent publication US20030013658A1, “Small peptides and methods for treatment of asthma and inflammation” (Hisatek, LLC, priority 1997, published 2003)
# Assays:
# Type in all cases: in vivo
# [1] = test system: OVA-sensitized/challenged mice; experiment: OVA-induced bronchial asthma mouse model (Standard/Resolution protocols, 1-3 month), airway eosinophils and mucus plugs
# Text: The OVA-induced Bronchial Asthma Mouse Model for Inhibition of Mast Cell Degranulation
# Reagents: Crystalline OVA was obtained from Pierce Chem. Co. (Rockford, Ill.) aluminum potassium sulfate (alum) from Sigma Chem. Co. (St. Louis, Mo.), pyrogen-free distilled water from Baxter, Healthcare Corporation (Deerfield, Ill.), 0.9% sodium chloride (normal saline) from Lymphomed (Deerfield, Ill.) and Trappsol™ HPB-L100 (aqueous hydroxypropyl beta cyclodextrin; 45 wt/vol % aqueous solution) from Cyclodextrin Technologies Development, Inc. (Gainesville, Fla.). The OVA (500 μg/ml in normal saline) was mixed with equal volumes of 10% (wt/vol) alum in distilled water. The mixture (pH 6.5 using 10 N NaOH) after incubation for 60 minutes at room temperature underwent centrifugation at 750 g for 5 minutes; the pellet was resuspended to the original volume in distilled water and used within one hour.
# The selective 5-lipoxtgenase inhibitor, Zileuton (N-[1-benzo[b]thien-2-ylethyl]-N-hydroxyurea; J. Pharmacol Exp Ther. 1991; 256: 929-937), was kindly provided by Drs. Bell and George W. Carter (Abbott Laboratories, Abbott Part, Ill.). Zileuton was dissolved in Trappsol.™. Histatek, Inc. (Seattle, Wash.) provided the mast cell degranulation inhibitor, f-Met-Leu-Phe-Phe (“HK-X”).
# Female BALB/c […] (6-8 wk of age at purchase; D and K, Seattle Wash.) were housed under conventional conditions for the studies.
# Allergen Immunization/Challenge Protocols: Mice received an i.p. injection of 0.2 ml (100 μg) of OVA with alum on the different protocols of Standard (FIG. 5A) and Resolution (FIG. 5B) (J. Exp Med. 1996; 184: 1483-1494). According to the different protocols, mice were anesthetized with 0.2 ml i.p. of ketamine (0.44 mg/ml)/xylazine (6.3 mg/ml) in normal saline before receiving an intranasal (i.n.) does of 100 μg OVA in 0.05 ml normal saline and an i.n. dose of 50 μg OVA in 0.05 ml normal saline separately on different days. Two control groups were used. Accordingly, the first group received normal saline with alum i.p. and normal saline without alum i.n.; the second group received OVA with alum i.p., OVA without alum i.n., and normal saline, alone.
# The trachea and left lung (the right lung is used for bronchoalveolar lavage (“BAL”)) were obtained and fixed in 10% neutral formaldehyde solution at room temperature for 6˜15 h. After being embedded in paraffin, the tissues were cut into 5-um sections and processed with the different staining or immunolabling further. Discombe's eosinophil staining was used for counting the cell numbers with the counterstain of methylene blue. The eosinophil number per unit airway area (2,200 μm^2) was determined by morphometry (J. Pathol. 1992; 166: 395-404; Am Rev Respir Dis. 1993; 147:448-456). Fibrosis was identified with the Masson's trichrome staining. Airway mucus was identified by the following staining method: methylene blue, hematoxylin and eosin, mucicarmine, alcian blue, and alcian blue/periodic acid-Schiff (PAS) reaction (Troyer, H., “Carbohydrates” in Principles and Techniques of Histochemistry, Little, Brown and Company, Boston, Mass., 1980: 89-121; Sheehan, D. C., et al., “Carbohydrates” in Theory and Practice of Histotechnology, Battle Press, Columbus, Ohio, 1980: 159-179) Mucin was stained with mucicarmine solution; metanil yellow counterstain was employed. Acidic mucin and sulfated mucosubstances were stained with alcian blue, pH 2.5; nuclear fast red counterstain was used. Neutral and acidic mucosubstances were identified by alcian blue, pH 2.5, and PAS reaction. The degree of mucus plugging of the airways (0.5-0.8 mm in diameter) was also assessed by morphometry. The percent occlusion of airway diameter by mucus was classified on a semiquantitative scale from 0 to 4+ as described in Figure Legends. The histologic and morphometric analyses were performed by individuals blinded to the protocol design. […]
# [2] = test system: OVA-sensitized/challenged mice; experiment: OVA allergen-induced airway inflammation mouse model, 28-day protocol, HK-X i.n. before each challenge; conditions: p<0.004; FIG. 11
# Text: The above-described murine model reproduces key features of human asthma. Late-phase allergen-specific pulmonary disease was induced in normal BALB/c mice using ovalbumin (OVA) as allergen. One protocol includes immunization of mice with i.p. OVA on […] and 14, and intranasal (i.n.) administration of OVA on days 14, 25, 26, and 27.
# In a mouse model of allergen-induced airway inflammation, the role of mast cell in airway eosinophil infiltration, mucus release, and hyper-responsiveness to methacholine was examined.
# Materials were used as described above. Mice received an i.p. injection of 0.2 ml (100 ug) of OVA complexed with aluminum potassium sulfate (alum) on day 0 and 14. On days 14, 25, 26, and 27, mice were anesthetized with 0.2 ml i.p. of ketamine (0.44 mg/ml)/xylazine (6.3 mg/ml) in normal saline before receiving an intranasal (i.n.) dose of 100 ug OVA in 0.05 ml normal saline on days 25, 26, and 27. Lung tissue was obtained 24 hours after the last i.n. challenge on day 28. The control group received normal saline with alum i.p. on days 0 and 14 and normal saline without alum i.n. on days 14, 25, 26, and 27. To assess the effect of HK-X inhibition on OVA induced asthma, HK-X (10 ug/ml) was given i.n. 30 minutes before each i.n challenge on days 25, 26, and 27.
# After tying off the left lung at the mainstem bronchus, the right lung was […] three times with 0.4 ml of normal saline, Bronchoalveolar lavage (BAL) fluid cells from a 0.05 ml aliquot of the pooled sample were counted using a hemocytometer and the remaining fluid centrifuged at 4° C. for 10 minutes at 200 g. After resuspension of the cell pellet in normal saline containing 10% BSA, BAL cell smears were made on glass slides. To stain eosinophils, dried slides were stained with Discombe's diluting fluid (0.05% aqueous eosin and 5% (v/v) acetone in distilled water) for 5-8 minutes, rinsed with water for 0.5 minutes and counterstained with 0.07 methylene blue for 2 minutes.
# Following BAL, the trachea and left lung (upper and lower lobes) were obtained and fixed in 10% buffered formalin solution at 20° C. for1S hours. After the tissues were processed and embeded in paraffin, the tissues were cut into 5 μm sections and stained with Discombe's solution and counterstained with methylene blue as described above or stained with Hematoxylin and eosin. The eosinophil number per unit airway area (2200 μm^2) was determined by morphometry as previously described. Airway mucus was identified by a variety of staining methods, i.e., methylene blue, Hematoxylin and eosin, mucicarmine, toluidine blue, alcian blue, and alcian blue/periodic acid Schiff (PAS) reaction. Mucin was stained with mucicarmine solution; metanil yellow counterstain was employed. Mucin and sialic acid-rich non-sulfated mucosubstances were stained metachromatically with toluidine blue, pH 4.5. Acidic mucin and sulfated mucosubstances were stained with alcian blue, pH 2.5; nuclear fast red counterstain was used. Neutral and acidic mucosubstances were identified by alcian blue, pH 2.5 and PAS reaction. The degree of mucus plugging of the airways (0.5˜0.8 mm in diameter) also was assessed by morphometry. The percent occlusion of airway diameter by mucus was classified on a semiquantitative scale from 0 to +++++. The histologic and morphometric analyses protocol design were performed by individuals blinded to the protocol design.
# Mucus glycoproteins in BAL fluid were assayed by slot blotting and PAS staining as described. Nitrocellulose membranes (0.2 um pore size; Schleicher & Schuell, Keene, N.H.) were wetted in distilled water and then in normal saline before placement in a Minifold II 72-well slot blot apparatus (Schleicher & Schuell). The BAL fluid samples (0.05 ml) and aliquots (0.05-0.75 ml) of a stock solution (2 ug/ml) of human respiratory mucin glycoprotein were blotted onto the nitrocellulose membranes by water suction vacuum, and mucus glycoproteins were visualized by PAS reaction. […]
# [3] = test system: OVA-sensitized/challenged mice; experiment: as above; conditions: p=0.0128 compared to OVA without zileuton; data not shown
# [4] = test system: mast cell degranulation induced by Compound 48/80; experiment: Rat skin model: inhibition of Compound 48/80-induced mast cell degranulation (capillary permeability, trypan blue); conditions: 0.15 μg Compound 48/80; for % Degranulation: percent mast cell degranulation produced by 48/80, 100 nanomoles peptide
# Description: The Rat Skin Model for Determination of Inhibition of Mast Cell Degranulation
# In this model, the blood plasma of the experimental rat is labeled with the dye trypan blue. This soluble dye is carried in the bloodstream as a passive marker of plasma itself, and is excluded from live cells. Intact blood vessels, including the capillary system, retain this dye under normal circumstances. A compound, which induces degranulation of mast cells (resulting in leukotriene and histamine release), is injected into the skin to simulate allergen-induced degranulation. In these experiments, Compound 48/80 was used for this purpose. In the events following leukotriene and histamine release, capillary permeability is increased, and plasma, dyed blue, leaks from capillaries and dyes the skin surrounding the injection site blue. The area of bluing is a measure of the amount of Compound 48/80 injected.
# A compound can be tested for “anti-leukotriene” and/or “anti-histamine” activity by mixing it with Compound 48/80 prior to injection.
# The rat skin model was undertaken and validated. Various peptides were tested at a predetermined dose for anti-leukotriene and/or anti-histamine activity. The dose selected allowed a general comparison to f-Met-Leu-Phe, which was standard compound for comparison.
# A “dose response” titration was performed for some compounds and compared with the standard compound. Observing serial decreases in the size areas of capillary permeability using serially smaller doses of the putative inhibitory compound validates the inhibition of leukotriene and/or histamine release observed in the initial predetermined dose test.
# Reagents were obtained from Sigma or Aldrich, with the exception of ketamine, a veterinary anaesthetic that was obtained from various veterinary suppliers. The rats used were male Sprague-Dawley breed, 220-240 g at time of purchase from B&K International.
# For the rat skin reaction, rats were anaesthetized with 0.25 ml 10 mg/ml ketamine. 1.0 ml trypan blue in saline (sterile filtered) was administered in a tail vein, and the back of the rat was shaved. Four intradermal injection sites per rat were used for test and control injections.
# Compound 48/80 was prepared as a 1.5 mg/ml stock solution in saline. […] Serial dilutions in saline to working levels were prepared just prior to injection of each rat.
# Peptides were prepared as a 23 mM stock solution in DMSO, and stored at −20° C. between experiments. At the time of use, the frozen stock solutions were thawed, and appropriate aliquots added to dilutions of Compound 48/80, along with appropriate amounts of DMSO, to result in the ratio of 5 μl DMSO to 0.1 ml aqueous Compound 48/80.
# For injections, 0.1 ml […], +1/− test compounds were injected intradermally into anaesthetized, dyed, and shaved rats. Following a 15 minute incubation, the rats were sacrificed by cervical dislocation and the back skin was evulsed and placed on a light box. An image of the backlit skin was digitized using a CCD video capture camera and compatible hardware/software. The digitized image was analyzed using a scientific graphics analysis software package, and the areas of capillary permeability (bluing) were integrated and digital values were obtained for further analysis.
# A dose response curve was generated using Compound 48/80 at various doses from ca. 0.01 μg through ca. 15 μg. […] A dose of 0.15 μg of Compound 48/80 was selected for conducting further tests.
# Several f-Met-Leu peptides were tested for inhibition of induced degranulation in the rat skin model using 100 nanomoles of the test peptide and a dose of 0.15 μg Compound 48/80. An intrinsic zero-peptide-dose 48/80 control was included in each rat for each experiment, and the % of inhibition was expressed in relative terms to this control (0% inhibition). The percent mast cell degranulation produced by 48/80 was also determined.
molecule,measurement,setting,value
"CC(c1cc2ccccc2s1)N(O)C(N)=O (stereo not shown) [Zileuton, N-[1-benzo[b]thien-2-ylethyl]-N-hydroxyurea, reference compound]",AIRWAY INFLUX OF EOSINOPHILS (%),[1]; 1 month,15.50%
same,AIRWAY INFLUX OF EOSINOPHILS (%),[1]; 2 month,11.66%
same,AIRWAY INFLUX OF EOSINOPHILS (%),[1]; 3 month,10.73%
same,% of plug of airway,[1]; 28 days,16%
same,PERCENTAGE OF EOSINOPHILS IN AIRWAY TISSUE,[1]; 28 days of treatment,15.8%
same,MUCUS PLUG SCORE IN AIRWAYS,"[1]; 28 days, semiquantitative scale 0 to 4+",1.3
same,reduction of airway eosinophils,[1]; through 1-3 month,could reduced eosinophils generally through 1-3 month
same,decrease in number of eosinophils in the BAL fluid,[2],82%
same,decrease in eosinophils recovered in the BAL fluid,[3],89%
f-Met-Leu-Tyr [Example 10],% Degranulation,[4],30%
N-acetyl-Met-Leu-Phe [Example 3],% Degranulation,[4],98%
"f-Met-Leu-Phe [Example 2, reference compound]","dose response, inhibition of degranulation induced by Compound 48/80","[4]; doses of 0 to about 230 nM peptide, FIG. 2 / FIG. 3",Inhibition of degranulation induced by Compound 48/80 was clearly shown
same,% Degranulation,[4],60%
